Laboratory results: US20070249501A1 (priority 2004, published 2007)

Experiments:
[1] = tested on: root-knot nematode Meloidogyne javanica; details: in vivo
[2] = tested on: microbial populations in soil; type: cell-based
[3] = tested on: tomato (cv. 870) seedlings; details: in vivo
Sclerotium rolfsii = type: cell-based
[4] = tested on: Fusarium oxysporum f. sp. radicis-lycopersici (FORL); type: cell-based

| Compound | reduction of microbial populations in soil [2] | other results |
| --- | --- | --- |
| ClC=CCCl [1,3-dichloropropene] | – | galling index of tomato plant roots [1]: zero |
| ClCCBr [BCE, ethylene bromochloride] | none of the tested industrial biocides was capable of significantly reducing microbial populations in soil | root system development in treated soil [3]: substantially stunted root system |
| BrC(Br)Br [BF, bromoform] | none of the tested industrial biocides was capable of significantly reducing microbial populations in soil | – |
| OCC(CO)(CBr)CBr [DBNPG, dibromoneopentyl glycol] | none of the tested industrial biocides was capable of significantly reducing microbial populations in soil | – |
| CN1CSC(=S)N(C)C1 [Dazomet, dazomet] | – | effect on population densities of FORL, Verticillium dahliae, Macrophomina phaseolina and Streptomyces spp. in soil (FIG. 3) [2]: the effect of bromopicrin was similar to the effect of the commercial fumigant Basamid |
| COc1ccc(C=CC(=O)O)cc1 [MCA, methoxy cinnamic acid] | none of the tested industrial biocides was capable of significantly reducing microbial populations in soil | – |
| O=S([O-])S(=O)(=O)[O-].[K+].[K+] [PMS, potassium metabisulfite] | none of the tested industrial biocides was capable of significantly reducing microbial populations in soil | root system development in treated soil [3]: substantially stunted root system |
| OCC(CBr)(CBr)CBr [TBNPA, tribromoneopentyl alcohol] | none of the tested industrial biocides was capable of significantly reducing microbial populations in soil | – |
| O=[N+]([O-])CBr [monobromonitromethane, bromonitromethane] | – | control of S. rolfosii in soil (percent survival, FIG. 6) (Sclerotium rolfsii): effective in controlling soil-borne fungi; control of FORL in soil (percent survival, FIG. 6) [4]: effective in controlling soil-borne fungi |
| C[N+](=O)[O-] [nitromethane] | – | control of S. rolfosii in soil (percent survival, FIG. 6) (Sclerotium rolfsii): no effect in controlling pests; control of FORL in soil (percent survival, FIG. 6) [4]: no effect in controlling pests |
| tetrabromoethane [TBE] | none of the tested industrial biocides was capable of significantly reducing microbial populations in soil | – |
| tetramethylammonium bromide [TMBr] | none of the tested industrial biocides was capable of significantly reducing microbial populations in soil | – |
